Our source for the TGI, GI50 and outcome values is PubChem BioAssay (NCI).

Values after ≈ are worked out from the molar mass of the structure shown.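 Cultured in 96-well plates, cells were exposed to test compound for 48 hours across five concentrations. GI50 is the concentration that inhibits growth by half. Definition used: TGI = concentration required for complete inhibition of growth.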 Active and inactive are the calls of the source. Cut-off read from the data, not from the text of the source: active = GI50 below about 0.43 µM; inactive = the rest.

Among the test systems are BT-549 breast; DMS 114 small cell lung; HOP-18 NSCLC; XF 498 CNS; P388/ADR leukemia; P388 leukemia; SN12K1 renal; RXF-631 renal.
Holding throughout (assay): NCI tumour cell line growth inhibition, 48 h

Turning to `CCn1cnc2c(NC(C)=O)ncnc21`, the TGI in the test with BT-549 breast is more than 100 µM.
For the compound `CN(C)CCC1(C2=CCCC2)CC/C(=C\c2ccccc2)C1=O` (centres undefined), the TGI turned out to be 33.2 µM in the test with DMS 114 small cell lung and 29.2 µM in the test on HOP-18 NSCLC.
Compound `CC[C@]12C=CCN3CCC4(c5cc([C@@]6(C(=O)OC)CC7CN(CCc8c6[nH]c6ccccc86)C[C@@H]6CCC[C@H]76)c(OC)cc5N(C)C4[C@](O)(C(=O)OC)C1OC(C)=O)C32` (some centres undefined) yielded a TGI in the test on DMS 114 small cell lung of 1.01 µM.
`Cc1cccc(NC(=S)N/N=C(/c2ccccc2)c2ccccn2)c1` gave a TGI in the test with BT-549 breast of 17 µM.
In the case of `CC1=NN(C(=O)Cc2ccccc2)C(=O)/C1=C\c1ccco1`, the TGI with DMS 114 small cell lung, in the test with HOP-18 NSCLC and in the test on XF 498 CNS was more than 100 µM each time.
In the test on BT-549 breast, `c1ccc2c(c1)C(=Nc1ccc(N=C3c4ccccc4-c4ccccc43)cc1)c1ccccc1-2` registered a TGI of more than 100 µM.
In the case of `NC(N)=Nc1nc2ccccc2[nH]1`, the GI50 with P388/ADR leukemia is 6.34 µg/mL (≈ 36.2 µM); in the test with DMS 114 small cell lung, 10.5 µg/mL; with P388 leukemia, 4.46 µg/mL (≈ 25.4 µM); in the test with SN12K1 renal, 37.6 µg/mL (≈ 215 µM). Also, the TGI is 41.5 µg/mL in the test with P388/ADR leukemia, 68 µg/mL in the test on DMS 114 small cell lung, 20.5 µg/mL with P388 leukemia and more than 150 µg/mL in the test with SN12K1 renal. Besides, the outcome with HOP-18 NSCLC and with XF 498 CNS was inactive.
`[N-]=[N+]=NC1=C(c2ccccc2)C(=O)c2cccc3cccc1c23` registered a TGI with BT-549 breast of 34.1 µM.
In the case of `COc1ccc([C@@H]2CC(=O)NCCCCNCCCN2)cc1`, the TGI in the test on DMS 114 small cell lung, in the test on HOP-18 NSCLC and with XF 498 CNS was more than 100 µM throughout.
With `COC(=O)C1CCC(=O)N1C(c1ccc2c(c1)OCO2)c1ccc2c(c1)OCO2` (centres undefined), in the test with BT-549 breast, the TGI was more than 100 µM.
Take `BrC12c3ccccc3Sc3ccccc3C1(Br)c1ccccc12` (centres undefined): the TGI in the test with RXF-631 renal is 98.8 µM; in the test with DMS 114 small cell lung, 64.8 µM; in the test on HOP-18 NSCLC, more than 100 µM.
In the case of `CCOC(=O)/C=C/c1ccccn1`, the TGI with RXF-631 renal, in the test with DMS 114 small cell lung, in the test on HOP-18 NSCLC and with XF 498 CNS was more than 100 µM each time.
With `CC(=O)NC(CCCCNC(=O)N(C)N=O)C(=O)NCc1ccccc1` (centres undefined), the TGI with RXF-631 renal, with DMS 114 small cell lung and in the test with XF 498 CNS was more than 100 µM throughout.
In turn, `CCCCCCCC/C=C/CCCCCCCC1CC(O)C(=O)O1` (centres undefined) registered a TGI with BT-549 breast of more than 100 µM.
As to `O=C1O[C@H]2[C@@H]3OC(=O)c4cc(O)c(O)c(O)c4-c4c(cc(O)c(O)c4O)C(=O)OC[C@H]2O[C@@H](OC(=O)c2cc(O)c(O)c(O)c2)[C@@H]3OC(=O)c2cc(O)c(O)c3c2[C@@H]2C1=CC(=O)C(O)(O)C2(O)O3` (some centres undefined), the TGI with BT-549 breast was more than 100 µM.
The same measure, in the same setting: the figure for `S=C1SC(c2ccc(Cl)cc2)(c2ccc(Cl)cc2)c2ccccc21` is more than 100 µM.
As for `CC1(C)CC[C@]2(C(=O)O)CC[C@]3(C)C(=CC[C@@H]4[C@@]5(C)CC[C@H](OC6OC(CO)C(O)C(O)C6OC6OC(CO)C(O)C(O)C6O)C(C)(C)[C@@H]5CC[C@]43C)[C@@H]2C1` (some centres undefined), in the test with BT-549 breast, the TGI is 36.2 µM.
In the test with BT-549 breast, `CN(C)/C=N/S(=O)(=O)c1nn2c(C=O)c(-c3ccc(-c4ccc([N+](=O)[O-])cc4)o3)nc2s1` showed a TGI of 8.05 µM.
On to `COc1cc([C@@H]2c3cc4c(c(O)c3C[C@H]3COC(=O)[C@@H]32)OCO4)cc(OC)c1O`, for which the TGI with P388/ADR leukemia was 0.992 µM; in the test with DMS 114 small cell lung, 0.00546 µM; with P388 leukemia, 1.9 µM; in the test on XF 498 CNS it was 0.702 µM. The GI50 in the test with DMS 114 small cell lung is 0.00231 µM.
With `CCN(CC)c1nc(N(C)C)c2cc(OC)ccc2n1`, the TGI in the test with BT-549 breast was more than 100 µM.
As for `N#Cc1c2nc3ccccc3nc2n2ccc3ccccc3c12`, the TGI with DMS 114 small cell lung and in the test on HOP-18 NSCLC was more than 100 µM each time.
In turn, `Cc1cc(C#N)c(Nc2c(C)cccc2[N+](=O)[O-])s1` returned a TGI in the test with BT-549 breast of 80.6 µM.
Take `COC(=O)NN1C(C)=C(C(=O)OC)C2(CCOC2=O)C1(C)O` (centres undefined): the TGI with RXF-631 renal, with DMS 114 small cell lung, in the test on HOP-18 NSCLC and with XF 498 CNS was more than 100 µM each time.
For `Cc1ccc(C2=C(c3ccccc3)C(O)(c3ccc(C)cc3)C(c3ccccc3)=C2c2ccc(C)cc2)cc1`, the TGI in the test with DMS 114 small cell lung and in the test with XF 498 CNS was more than 100 µM each time.
In the test on BT-549 breast, `COc1cc(OC)nc(Nc2c(C#N)c3nc4ccccc4n3c3ccccc23)n1` returned a TGI of 63 µM.
As for `COC(Cc1ccccc1)NC(C)=O` (centres undefined), the TGI with BT-549 breast is more than 100 µM.
As for `S=C(Nc1ccccc1)N1N=C2c3ccccc3CC[C@H]2[C@@H]1c1ccccc1`, the TGI in the test with DMS 114 small cell lung, in the test with HOP-18 NSCLC and with XF 498 CNS was more than 100 µM each time.
`Cc1nc(C)c(N2CCN(C#N)CC2)c(=O)[nH]1`: the TGI in the test on BT-549 breast is more than 100 µM.
As to `CCc1n[nH]c(=O)n1NC(=O)/C=C\C(=O)O`, the TGI with BT-549 breast is more than 100 µM.
Turning to `O=c1/c(=C/c2ccc3c(c2)OCO3)sc2nnc(-c3ccco3)n12`, the TGI in the test with DMS 114 small cell lung, in the test on HOP-18 NSCLC and with XF 498 CNS was more than 100 µM in each case.
